Measurements taken from US20240116985A1, “STAPLED PEPTIDES AND METHODS THEREOF” (priority 2020, published 2024).
In brackets after ≈: the same amount, converted by molar mass. Where two headings read alike, the source gives them in different places.

Columns and labels:
Solubility in PBS = format: physicochemical
Description: After ultracentrifugation of the PBS solution, the supernatant was analyzed by HPLC and compared to an HPLC injection 50 μM peptide DMSO solution. Solubility was determined by: [(Area of PBS peak)/(Area of DMSO peak)]*50 uM.

CHI Log D procedure = format: physicochemical
[1] = target: T1, full-length beta-Catenin (Uniprot ID P35222) (Homo sapiens, UniProt P35222); experiment: Fluorescence polarization IC50 (beta-catenin / 5FAM-TCF4 10-53 competition); format: binding
T1 construct: 10 nM full-length beta-Catenin (Uniprot ID P35222)
T1 sequence (P35222 1-781): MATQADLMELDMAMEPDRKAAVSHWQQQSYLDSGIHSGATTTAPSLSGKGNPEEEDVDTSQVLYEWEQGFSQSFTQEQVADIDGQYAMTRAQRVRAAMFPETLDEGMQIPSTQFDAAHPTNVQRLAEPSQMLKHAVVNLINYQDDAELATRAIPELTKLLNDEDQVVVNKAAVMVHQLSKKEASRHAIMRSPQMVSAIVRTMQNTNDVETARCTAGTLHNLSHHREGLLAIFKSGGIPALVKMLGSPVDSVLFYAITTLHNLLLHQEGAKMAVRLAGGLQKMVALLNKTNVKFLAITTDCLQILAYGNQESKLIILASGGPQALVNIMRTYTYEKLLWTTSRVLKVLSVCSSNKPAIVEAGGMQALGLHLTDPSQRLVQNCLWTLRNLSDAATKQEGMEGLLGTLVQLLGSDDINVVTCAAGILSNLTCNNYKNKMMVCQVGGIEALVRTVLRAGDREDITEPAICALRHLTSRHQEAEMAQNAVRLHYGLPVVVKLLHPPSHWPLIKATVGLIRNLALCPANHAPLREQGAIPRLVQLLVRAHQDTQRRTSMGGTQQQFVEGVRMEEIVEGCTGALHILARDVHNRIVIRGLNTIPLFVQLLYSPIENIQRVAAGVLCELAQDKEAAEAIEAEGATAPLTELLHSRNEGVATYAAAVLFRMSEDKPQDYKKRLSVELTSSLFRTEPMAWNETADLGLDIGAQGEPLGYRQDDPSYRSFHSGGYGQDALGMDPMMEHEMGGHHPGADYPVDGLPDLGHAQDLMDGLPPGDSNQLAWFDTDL

[2] = target: T2, beta-catenin/TCF4 engagement (Homo sapiens, UniProt P35222); experiment: Nano-BRET target engagement assay (B-cat-Halo & TCF4-Luc in HEK293 cells); format: cell-based; conditions: read-out: NanoBRET Abs IC50
T2 construct: expressed in transfected cells; host or cells: HEK293
T2 sequence (P35222 1-781): T1 sequence (P35222 1-781)

Row | Solubility (Solubility in PBS) [µM] | SMILES | further results
1 | 10 (≈ 19 µg/mL) | CC(=O)N1CCC[C@]12CC=CCCCC1(CCCC=CCCCOC(=O)N3CC[C@@](C(=O)N[C@@H](Cc4ccccc4)C(=O)N[C@@H](Cc4csc5ccccc45)C(=O)N[C@@H](CCC(N)=O)C(N)=O)(C3)NC(=O)[C@H](CC(C)C)NC(=O)[C@H](Cc3ccccc3)NC(=O)[C@H](C)NC(=O)[C@H](C)NC(=O)[C@H]([C@@H](C)O)NC(=O)[C@H](CC(=O)O)NC1=O)NC(=O)[C@H](CC(C)(C)C)NC(=O)[C@H](CC(N)=O)NC2=O (single isomer, unassigned) [I-1284, Ac-PL3-Asn-Npg-B5-Asp-Thr-Ala-Ala-Phe-Leu-PyrS2-Phe-BztA-Gln-NH2] | –
2 | 10 (≈ 19 µg/mL) | CC(=O)N1CCC[C@]12CC=CCCCC1(CCCC=CCCCOC(=O)N3CC[C@@](C(=O)N[C@@H](Cc4ccccc4)C(=O)N[C@@H](Cc4csc5ccccc45)C(=O)N[C@@H](CCC(N)=O)C(N)=O)(C3)NC(=O)[C@H](CC(C)C)NC(=O)[C@H](Cc3ccccc3)NC(=O)[C@H](C)NC(=O)[C@H](C)NC(=O)[C@H]([C@@H](C)O)NC(=O)[C@H](CC(=O)O)NC1=O)NC(=O)[C@H](CC(C)(C)C)NC(=O)[C@H](CC(N)=O)NC2=O (single isomer, unassigned) [I-1285, Ac-PL3-Asn-Npg-B5-Asp-Thr-Ala-Ala-Phe-Leu-PyrS2-Phe-BztA-Gln-NH2] | –
3 | 10 (≈ 18.4 µg/mL) | CC(=O)N1CCC[C@]12CC=CCCCC1(CCCC=CCCCOC(=O)N3CC[C@@](C(=O)N[C@@H](Cc4ccccc4)C(=O)N[C@@H](Cc4csc5ccccc45)C(=O)N[C@@H](CCC(N)=O)C(N)=O)(C3)NC(=O)[C@H](CC(C)C)NC(=O)[C@H](Cc3ccccc3)NC(=O)[C@H](C)NC(=O)[C@H](C)NC(=O)[C@H]([C@@H](C)O)NC(=O)[C@H](CC(=O)O)NC1=O)NC(=O)[C@H](C)NC(=O)[C@H](CC(N)=O)NC2=O (single isomer, unassigned) [I-1286, Ac-PL3-Asn-Ala-B5-Asp-Thr-Ala-Ala-Phe-Leu-PyrS2-Phe-BztA-Gln-NH2] | –
4 | 10 (≈ 18.4 µg/mL) | CC(=O)N1CCC[C@]12CC=CCCCC1(CCCC=CCCCOC(=O)N3CC[C@@](C(=O)N[C@@H](Cc4ccccc4)C(=O)N[C@@H](Cc4csc5ccccc45)C(=O)N[C@@H](CCC(N)=O)C(N)=O)(C3)NC(=O)[C@H](CC(C)C)NC(=O)[C@H](Cc3ccccc3)NC(=O)[C@H](C)NC(=O)[C@H](C)NC(=O)[C@H]([C@@H](C)O)NC(=O)[C@H](CC(=O)O)NC1=O)NC(=O)[C@H](C)NC(=O)[C@H](CC(N)=O)NC2=O (single isomer, unassigned) [I-1287, Ac-PL3-Asn-Ala-B5-Asp-Thr-Ala-Ala-Phe-Leu-PyrS2-Phe-BztA-Gln-NH2] | –
5 | 10 (≈ 20 µg/mL) | CC(=O)N1CCC[C@]12CC=CCCCC1(CCCC=CCCCOC(=O)N3CC[C@@](C(=O)N[C@@H](Cc4ccccc4)C(=O)N[C@@H](Cc4csc5ccccc45)C(=O)N[C@@H](CCC(N)=O)C(N)=O)(C3)NC(=O)[C@H](CC(C)C)NC(=O)[C@H](Cc3ccccc3)NC(=O)[C@H](C)NC(=O)[C@H](CCCCNC(C)C)NC(=O)[C@H]([C@@H](C)O)NC(=O)[C@H](CC(=O)O)NC1=O)NC(=O)[C@H](CC(C)(C)C)NC(=O)[C@H](CC(N)=O)NC2=O (single isomer, unassigned) [I-1289, Ac-PL3-Asn-Npg-B5-Asp-Thr-iPrLys-Ala-Phe-Leu-PyrS2-Phe-BztA-Gln-NH2] | –
6 | 10 (≈ 18.9 µg/mL) | CC(=O)N1CCC[C@]12CC=CCCCC1(CCCC=CCCCOC(=O)N3CC[C@@](C(=O)N[C@@H](Cc4ccccc4)C(=O)N[C@@H](Cc4ccc5ccccc5c4)C(=O)N[C@@H](CCC(N)=O)C(N)=O)(C3)NC(=O)[C@H](CC(C)C)NC(=O)[C@H](Cc3ccccc3)NC(=O)[C@H](C)NC(=O)[C@H](C)NC(=O)[C@H]([C@@H](C)O)NC(=O)[C@H](CC(=O)O)NC1=O)NC(=O)[C@H](CC(C)(C)C)NC(=O)[C@H](CC(N)=O)NC2=O (single isomer, unassigned) [I-1291, Ac-PL3-Asn-Npg-B5-Asp-Thr-Ala-Ala-Phe-Leu-PyrS2-Phe-2NapA-Gln-NH2] | –
7 | 10 (≈ 18.9 µg/mL) | CC(=O)N1CCC[C@]12CC=CCCCC1(CCCC=CCCCOC(=O)N3CC[C@@](C(=O)N[C@@H](Cc4ccccc4)C(=O)N[C@@H](Cc4ccc5ccccc5c4)C(=O)N[C@@H](CCC(N)=O)C(N)=O)(C3)NC(=O)[C@H](CC(C)C)NC(=O)[C@H](Cc3ccccc3)NC(=O)[C@H](C)NC(=O)[C@H](C)NC(=O)[C@H]([C@@H](C)O)NC(=O)[C@H](CC(=O)O)NC1=O)NC(=O)[C@H](CC(C)(C)C)NC(=O)[C@H](CC(N)=O)NC2=O (single isomer, unassigned) [I-1292, Ac-PL3-Asn-Npg-B5-Asp-Thr-Ala-Ala-Phe-Leu-PyrS2-Phe-2NapA-Gln-NH2] | –
8 | 10 (≈ 18.4 µg/mL) | CC(=O)N1CCC[C@]12CC=CCCCC1(CCCC=CCCCOC(=O)N3CC[C@@](C(=O)N[C@@H](Cc4ccccc4)C(=O)N[C@@H](Cc4csc5ccccc45)C(=O)N[C@@H](CCC(N)=O)C(N)=O)(C3)NC(=O)[C@H](CC(C)C)NC(=O)[C@H](Cc3ccccc3)NC(=O)[C@H](C)NC(=O)[C@H](C)NC(=O)[C@H]([C@@H](C)O)NC(=O)[C@H](CC(N)=O)NC1=O)NC(=O)[C@H](C)NC(=O)[C@H](CC(=O)O)NC2=O (single isomer, unassigned) [I-1295, Ac-PL3-Asp-Ala-B5-Asn-Thr-Ala-Ala-Phe-Leu-PyrS2-Phe-BztA-Gln-NH2] | –
9 | 10 (≈ 18.7 µg/mL) | CC(=O)N1CCC[C@]12CC=CCCCC1(CCCC=CCCCOC(=O)N3CC[C@@](C(=O)N[C@@H](Cc4ccccc4)C(=O)N[C@@H](Cc4csc5ccccc45)C(=O)N[C@H](C(N)=O)[C@@H](C)O)(C3)NC(=O)[C@H](CC(C)C)NC(=O)[C@H](Cc3ccccc3)NC(=O)[C@H](C)NC(=O)[C@H](C)NC(=O)[C@H]([C@@H](C)O)NC(=O)[C@H](CC(N)=O)NC1=O)NC(=O)[C@H](CC(C)(C)C)NC(=O)[C@H](CC(=O)O)NC2=O (single isomer, unassigned) [I-1299, Ac-PL3-Asp-Npg-B5-Asn-Thr-Ala-Ala-Phe-Leu-PyrS2-Phe-BztA-Thr-NH2] | –
10 | – | CC(=O)N1CCC[C@]12CC=CCCCC1(CCCC=CCCCCCC[C@@](C)(C(=O)N[C@@H](Cc3ccccc3Cl)C(=O)N[C@@H](Cc3csc4ccccc34)C(=O)N[C@@H](CCC(N)=O)C(N)=O)NC(=O)[C@H]([C@@H](C)O)NC(=O)[C@H](Cc3ccccc3)NC(=O)[C@H](C)NC(=O)[C@H](C)NC(=O)[C@H](CC(=O)O)NC(=O)[C@H](CC(=O)O)NC1=O)NC(=O)[C@H](CC(C)(C)C)NC(=O)[C@H](CC(=O)O)NC2=O (stereo partly drawn) [I-1086, Ac-PL3-Asp-Npg-B5-Asp-Asp-Ala-Ala-Phe-Thr-S8-2C1F-BztA-Gln-NH2] | CHI Log D (CHI Log D procedure; pH 7.4): 2.709; IC50 ([1]; fluorescence polarization, beta-catenin, read-out: FP EC50): 12 nM; IC50 ([1]; read-out: beta-Catenin FP IC50): 12 nM; IC50 [2]: 10100 nM
11 | – | CC(=O)N1CCC[C@]12CC=CCCCC1(CCCC=CCCCOC(=O)N3CC[C@@](C(=O)N[C@@H](Cc4ccsc4)C(=O)N[C@@H](Cc4csc5ccccc45)C(=O)N[C@@H](CCC(N)=O)C(N)=O)(C3)NC(=O)[C@H](CC(N)=O)NC(=O)[C@H](Cc3ccccc3)NC(=O)[C@H](C)NC(=O)[C@H](C)NC(=O)[C@H](CN(CC(=O)O)CC(F)(F)F)NC(=O)[C@H](CC(=O)O)NC1=O)NC(=O)[C@H](CC(C)(C)C)NC(=O)C[C@H](CC(=O)O)NC2=O (stereo partly drawn) [I-1161, Ac-PL3-RbGlu-Npg-B5-Asp-TfeGA-Ala-Ala-Phe-Asn-PyrS2-3Thi-BztA-Gln-NH2] | chromatographic logD (CHI Log D procedure; pH 7.4, CHI Log D): 2.08; IC50 ([1]; fluorescence polarization, read-out: beta-Catenin FP IC50): 24 nM; IC50 ([2]; absolute IC50): > 20000 nM
